Source: ChEMBL document CHEMBL3046644, “Biological activity of tropolone” (Biol Pharm Bull, 2003)

Experiments:
Format in all cases: functional
Coptotermes formosanus [1] = assay: Insecticidal activity against Coptotermes formosanus assessed as mortality
Coptotermes formosanus [2] = assay: Insecticidal activity against Coptotermes formosanus assessed as mortality at 0.00005 g/m'2 after 48 hr
Coptotermes formosanus [3] = assay: Insecticidal activity against Coptotermes formosanus assessed as mortality at 0.00010 g/m'2 after 48 hr
Coptotermes formosanus [4] = assay: Insecticidal activity against Coptotermes formosanus assessed as mortality at 0.00025 g/m'2 after 48 hr
Coptotermes formosanus [5] = assay: Insecticidal activity against Coptotermes formosanus assessed as mortality at 0.00050 g/m'2 after 48 hr
Coptotermes formosanus [6] = assay: Insecticidal activity against Coptotermes formosanus assessed as mortality at 0.00001 g/m'2 after 24 hr
Coptotermes formosanus [7] = assay: Insecticidal activity against Coptotermes formosanus assessed as mortality at 0.00010 g/m'2 after 24 hr
Coptotermes formosanus [8] = assay: Insecticidal activity against Coptotermes formosanus assessed as mortality at 0.00005 g/m'2 after 24 hr
Coptotermes formosanus [9] = assay: Insecticidal activity against Coptotermes formosanus assessed as mortality at 0.00025 g/m'2 after 24 hr
Coptotermes formosanus [10] = assay: Insecticidal activity against Coptotermes formosanus assessed as mortality at 0.00050 g/m'2 after 24 hr
Dermatophagoides farinae [11] = assay: Insecticidal activity against Dermatophagoides farinae assessed as mortality at 1 g/m'2 after 24 hr by clip method
Tyrophagus putrescentiae [12] = assay: Insecticidal activity against Tyrophagus putrescentiae assessed as mortality at 0.50 g/m'2 after 24 hr by clip method
Tyrophagus putrescentiae [13] = assay: Insecticidal activity against Tyrophagus putrescentiae assessed as mortality at 0.10 g/m'2 after 24 hr by clip method
Tyrophagus putrescentiae [14] = assay: Insecticidal activity against Tyrophagus putrescentiae assessed as mortality at 0.20 g/m'2 after 24 hr by clip method
Tyrophagus putrescentiae [15] = assay: Insecticidal activity against Tyrophagus putrescentiae assessed as mortality at 1 g/m'2 after 24 hr by clip method
Dermatophagoides farinae [16] = assay: Insecticidal activity against Dermatophagoides farinae assessed as mortality at 0.20 g/m'2 after 24 hr by clip method
Dermatophagoides farinae [17] = assay: Insecticidal activity against Dermatophagoides farinae assessed as mortality at 0.50 g/m'2 after 24 hr by clip method
Dermatophagoides farinae [18] = assay: Insecticidal activity against Dermatophagoides farinae assessed as mortality at 0.10 g/m'2 after 24 hr by clip method
Tyrophagus putrescentiae [19] = assay: Insecticidal activity against Tyrophagus putrescentiae assessed as mortality after 24 hr by clip method
Dermatophagoides farinae [20] = assay: Insecticidal activity against Dermatophagoides farinae assessed as mortality after 24 hr by clip method

| SMILES | LC50 (Coptotermes formosanus [1]) | mortality (Coptotermes formosanus [2]) | mortality (Coptotermes formosanus [3]) | mortality (Coptotermes formosanus [4]) | mortality (Coptotermes formosanus [5]) | mortality (Coptotermes formosanus [6]) | mortality (Coptotermes formosanus [7]) | mortality (Coptotermes formosanus [8]) | mortality (Coptotermes formosanus [9]) | mortality (Coptotermes formosanus [10]) | mortality (Dermatophagoides farinae [11]) | mortality (Tyrophagus putrescentiae [12]) | mortality (Tyrophagus putrescentiae [13]) | mortality (Tyrophagus putrescentiae [14]) | mortality (Tyrophagus putrescentiae [15]) | mortality (Dermatophagoides farinae [16]) | mortality (Dermatophagoides farinae [17]) | mortality (Dermatophagoides farinae [18]) | LC50 (Tyrophagus putrescentiae [19]) | LC50 (Dermatophagoides farinae [20]) |
| --- | --- | --- | --- | --- | --- | --- | --- | --- | --- | --- | --- | --- | --- | --- | --- | --- | --- | --- | --- | --- |
| CCOP(=S)(OCC)Oc1nc(Cl)c(Cl)cc1Cl [CHLORPYRIFOS] | 0.00016 g/m2 | 40% | 75% | 100% | 100% | 0% | 25% | 10% | 60% | 100% |  |  |  |  |  |  |  |  |  |  |
| CCN(CC)C(=O)c1cccc(C)c1 [DIETHYLTOLUAMIDE] |  |  |  |  |  |  |  |  |  |  | 45.5% | 18.9% | 0% | 4.5% | 67.1% | 7.2% | 20.5% | 0% | 1.46 g/m2 | 0.79 g/m2 |
